The record followed here is ChEMBL document CHEMBL1944503, “Synthesis and biological evaluation of conjugates of deoxypodophyllotoxin and 5-FU as inducer of caspase-3 and -7” (Eur J Med Chem, 2012).

pIC50: −log10 of the molar value. Active and inactive are the calls of the source. The rule behind the calls is not given here.

Broadly, the pIC50 is the IC50 on a negative log10 scale, so that one unit is a factor of ten.

For one assay, the system named is HeLa. The assay can be described thus: Cytotoxicity against human HeLa cells after 48 hrs by CCK-8 assay. Type of assay: functional, cell-based. For orientation: Formazan colour is commonly taken as a measure of viable cells.
The next assay has as its system SiHa. Kind of assay: Cytotoxicity against human SiHa cells after 48 hrs by MTT assay. The class given is functional, cell-based.
The test system of assay [1] is A549. Kind of assay: Induction of apoptosis in human A549 cells assessed as membrane blebbing at 0.5 uM after 24 hrs by Hoechst 33258 staining based fluorescence microscopy. Type of assay: functional, cell-based.
Assay [2] has as its system A549. Kind of assay: Induction of apoptosis in human A549 cells assessed as cell shrinkage at 0.5 uM after 24 hrs by Hoechst 33258 staining based fluorescence microscopy. The class given is functional.
Assay [3] deals with A549. The assay can be described thus: Induction of apoptosis in human A549 cells assessed as cell detachment at 0.5 uM after 24 hrs by Hoechst 33258 staining based fluorescence microscopy. Type of assay: functional.
Assay [4] concerns A549. The assay can be described thus: Induction of apoptosis in human A549 cells assessed as nuclear condensation at 0.5 uM after 24 hrs by Hoechst 33258 staining based fluorescence microscopy. Type of assay: functional, cell-based.
Assay [5] has as its system A549. Kind of assay: Induction of apoptosis in human A549 cells assessed as nuclear fragmentation at 0.5 uM after 24 hrs by Hoechst 33258 staining based fluorescence microscopy. Type of assay: functional, cell-based.
A further assay has as its system HL-60. The assay can be described thus: Cytotoxicity against human HL60 cells after 48 hrs by CCK-8 assay. Type of assay: functional, cell-based. The following applies: HL-60, 48 h.
Assay [6] relates to A549. Kind of assay: cells. As to conditions: Homo sapiens, A549, 48 h.
Description: Cytotoxicity against human A549 cells after 48 hrs by MTT assay
Assay [7] concerns A549. Kind of assay: Cell cycle arrest in human A549 cells assessed as accumulation at G1 phase at 0.5 uM after 12 hrs by propidium iodide staining based flow cytometry analysis (reference value: 54.1%). The class given is functional. (A flow cytometer gives signals particle by particle.)
The test system of assay [8] is A549. The assay can be described thus: Cell cycle arrest in human A549 cells assessed as accumulation at S phase at 0.5 uM after 12 hrs by propidium iodide staining based flow cytometry analysis (reference value: 30.3%). The class given is functional.
Assay [9] relates to A549. The assay can be described thus: Cell cycle arrest in human A549 cells assessed as accumulation at G2/M phase at 0.5 uM after 12 hrs by propidium iodide staining based flow cytometry analysis (reference value: 15.6%). The class given is functional.
Assay [10] has as its system A549. Kind of assay: Cell cycle arrest in human A549 cells assessed as accumulation at G1 phase at 0.5 uM after 24 hrs by propidium iodide staining based flow cytometry analysis (reference value: 54.1%). Type of assay: functional.
Assay [11] concerns A549. Kind of assay: Cell cycle arrest in human A549 cells assessed as accumulation at S phase at 0.5 uM after 24 hrs by propidium iodide staining based flow cytometry analysis (reference value: 30.3%). Type of assay: functional.
Assay [12] deals with A549. The assay can be described thus: Cell cycle arrest in human A549 cells assessed as accumulation at G2/M phase at 0.5 uM after 24 hrs by propidium iodide staining based flow cytometry analysis (reference value: 15.6%). The class given is functional.
Assay [13] has as its system A549. Kind of assay: Induction of apoptosis in human A549 cells assessed as increase in caspase-3 cleavage at 0.5 uM by Western blot analysis. The class given is functional, cell-based. As to conditions: TDE = time-dependent effect. (In general: In western blotting, separated proteins are transferred to a membrane and probed.)
In assay [14] the test system is A549. The assay can be described thus: Induction of apoptosis in human A549 cells assessed as increase in caspase-7 cleavage at 0.5 uM by Western blot analysis. As to conditions: TDE = time-dependent effect. The class given is functional, cell-based.
In assay [15] the test system is A549. Kind of assay: Cell cycle arrest in human A549 cells assessed as accumulation at G2/M phase at 0.5 uM by propidium iodide staining based flow cytometry analysis. The class given is functional. The following applies: TDE = time-dependent effect.
Assay [16] relates to A549. Kind of assay: Cell cycle arrest in human A549 cells assessed as accumulation at G1 phase at 0.5 uM by propidium iodide staining based flow cytometry analysis. The class given is functional. The following applies: TDE = time-dependent effect.

Regarding `COc1cc([C@@H]2c3cc4c(cc3[C@@H](O[C@@H]3O[C@@H]5CO[C@@H](C)O[C@H]5[C@H](O)[C@H]3O)[C@H]3COC(=O)[C@H]23)OCO4)cc(OC)c1O` [ETOPOSIDE], the results for the pIC50 in the assay on HeLa and in the assay with SiHa were 4.39 and 5.56, respectively.

As for `COc1cc([C@@H]2c3cc4c(cc3[C@H](O)[C@H]3COC(=O)[C@H]23)OCO4)cc(OC)c1OC`, the result with A549 [1], in the assay with A549 [2], in the assay on A549 [3], in the assay on A549 [4] and in the assay on A549 [5] was Active.

Take `COc1cc([C@@H]2c3cc4c(cc3C[C@H]3COC(=O)[C@@H]32)OCO4)cc(OC)c1O` [4'-DEMETHYLDEOXYPODOPHYLLOTOXIN]: the pIC50 with HeLa was 4.27; with SiHa it was 4.37.

Consider `COc1cc([C@@H]2c3cc4c(cc3C[C@H]3COC(=O)[C@@H]32)OCO4)cc(OC)c1OC(=O)Cn1cc(F)c(=O)[nH]c1=O`, for which the negative-log IC50 (pIC50) is 7.46 with HL-60, 6.74 in the assay on HeLa, 6.96 in the assay with SiHa and 6.18 in the assay on A549 [6].

For `COc1cc([C@@H]2c3cc4c(cc3C[C@H]3COC(=O)[C@@H]32)OCO4)cc(OC)c1OC` [DESOXYPODOPHYLLOTOXIN], the pIC50 was 5.22 in the assay on HeLa and 5.70 in the assay on SiHa.

Consider `COc1cc([C@@H]2c3cc4c(cc3C[C@H]3COC(=O)[C@@H]32)OCO4)cc(OC)c1OC(=O)[C@H](CC(C)C)NC(=O)Cn1cc(F)c(=O)[nH]c1=O`, for which the pIC50 with HL-60 is 7.20; in the assay with HeLa, 6.37; in the assay on SiHa, 6.46; in the assay on A549 [6] it was 5.97.

For the molecule `COc1cc([C@@H]2c3cc4c(cc3C[C@H]3COC(=O)[C@@H]32)OCO4)cc(OC)c1OC(=O)[C@H](Cc1ccccc1)NC(=O)Cn1cc(F)c(=O)[nH]c1=O`, the pIC50 in the assay on HL-60 is 7.64; in the assay with HeLa it was 6.08; in the assay with SiHa it was 6.12; with A549 [6] it was 6.25. The Activity in the assay on A549 [7] was 4.84%; in the assay with A549 [8], 42.6%; in the assay with A549 [9], 52.6%; in the assay with A549 [10] it was 3.94%; in the assay on A549 [11], 31.3%; in the assay with A549 [12], 64.8%. Moreover, the Activity entry in the assay with A549 [13], with A549 [14], in the assay with A549 [15] and in the assay with A549 [16] was “tde” each time. Further, the result with A549 [1], with A549 [2], with A549 [3], in the assay with A549 [4] and in the assay with A549 [5] was Active.

Consider `O=c1[nH]cc(F)c(=O)[nH]1` [FLUOROURACIL], for which the pIC50 in the assay with HL-60 is 4.17; with HeLa, 4.09; in the assay on SiHa, 3.66; in the assay with A549 [6] it was 4.26.

As to `COc1cc([C@@H]2c3cc4c(cc3C[C@H]3COC(=O)[C@@H]32)OCO4)cc(OC)c1OC(=O)[C@H](C)NC(=O)Cn1cc(F)c(=O)[nH]c1=O`, the pIC50 is 6.72 in the assay with HL-60, 6.70 in the assay with HeLa, 6.22 in the assay with SiHa and 5.85 with A549 [6].

Regarding `COc1cc([C@@H]2c3cc4c(cc3C[C@H]3COC(=O)[C@@H]32)OCO4)cc(OC)c1OC(=O)[C@@H](NC(=O)Cn1cc(F)c(=O)[nH]c1=O)C(C)C`, the pIC50 in the assay on HL-60 was 6.85; in the assay with HeLa, 5.91; in the assay with SiHa it was 5.78; in the assay on A549 [6], 6.44.

Regarding `COc1cc([C@@H]2c3cc4c(cc3C[C@H]3COC(=O)[C@@H]32)OCO4)cc(OC)c1OC(=O)[C@@H](CCSC)NC(=O)Cn1cc(F)c(=O)[nH]c1=O`, the pIC50 with HL-60 was 6.03; with HeLa it was 5.71; with SiHa, 5.82; in the assay on A549 [6], 5.59.

As to `COc1cc([C@@H]2c3cc4c(cc3C[C@H]3COC(=O)[C@@H]32)OCO4)cc(OC)c1OC(=O)[C@H](CCSC)NC(=O)Cn1cc(F)c(=O)[nH]c1=O`, the pIC50 in the assay on HL-60 is 6.64; in the assay with HeLa, 6.11; in the assay with SiHa it was 6.44; in the assay with A549 [6] it was 6.08.
